Tests used:
[1] = Inhibition of almond beta-glucosidase using p-Nitrophenyl beta-D-glucopyranoside as substrate; set-up: species or system Prunus dulcis
[2] = Inhibition of Bakers yeast alpha-glucosidase using p-Nitrophenyl alpha-D-glucopyranoside as substrate; set-up: species or system Saccharomyces cerevisiae
[3] = Glutathione peroxidase like activity assessed as hydrogen peroxide reduction by measuring reaction rate at 0.1 mM measured for 180 sec in presence of PhSH relative to control
Alpha-mannosidase [4] = target: T1, Alpha-mannosidase (Canavalia ensiformis, UniProt C0HJB3); assay: Inhibition of jack bean alpha-mannosidase using o-orp-nitrophenyl-glycopyranoside as substrate by Lineweaver-Burk plot method
T1 sequence (C0HJB3 whole entry): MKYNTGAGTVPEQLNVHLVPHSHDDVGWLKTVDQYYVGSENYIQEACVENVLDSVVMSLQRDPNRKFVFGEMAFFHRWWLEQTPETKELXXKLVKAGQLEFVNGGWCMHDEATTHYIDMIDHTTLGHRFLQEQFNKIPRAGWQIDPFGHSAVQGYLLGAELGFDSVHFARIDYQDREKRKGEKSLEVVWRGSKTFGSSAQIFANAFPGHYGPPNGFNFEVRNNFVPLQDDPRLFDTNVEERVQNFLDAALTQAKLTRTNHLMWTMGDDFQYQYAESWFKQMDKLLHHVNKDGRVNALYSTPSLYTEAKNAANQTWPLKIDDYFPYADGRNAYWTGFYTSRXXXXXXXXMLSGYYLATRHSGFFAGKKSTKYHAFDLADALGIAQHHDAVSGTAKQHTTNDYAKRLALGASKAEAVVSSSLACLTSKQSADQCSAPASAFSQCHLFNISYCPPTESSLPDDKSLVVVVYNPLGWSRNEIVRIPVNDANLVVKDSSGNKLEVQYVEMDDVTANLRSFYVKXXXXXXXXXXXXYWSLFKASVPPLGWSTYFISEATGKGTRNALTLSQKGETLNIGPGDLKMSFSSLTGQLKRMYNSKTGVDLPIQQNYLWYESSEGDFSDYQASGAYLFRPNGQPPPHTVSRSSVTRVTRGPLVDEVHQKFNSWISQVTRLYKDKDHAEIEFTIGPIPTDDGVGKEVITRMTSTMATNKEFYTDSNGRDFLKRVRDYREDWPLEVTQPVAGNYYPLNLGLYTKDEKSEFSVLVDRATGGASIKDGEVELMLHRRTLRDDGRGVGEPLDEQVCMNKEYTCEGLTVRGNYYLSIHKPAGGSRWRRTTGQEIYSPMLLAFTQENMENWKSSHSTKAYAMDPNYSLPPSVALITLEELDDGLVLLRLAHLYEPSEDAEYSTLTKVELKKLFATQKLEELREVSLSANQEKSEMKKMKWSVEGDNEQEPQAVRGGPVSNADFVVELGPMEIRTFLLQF

Aspergillus oryzae = assay: Inhibition of Aspergillus oryzae beta-galactosidase at 0.5 mM using o-orp-nitrophenyl-glycopyranoside as substrate measured for 120 sec relative to control
[5] = Competitive inhibition of almond beta-glucosidase using o-orp-nitrophenyl-glycopyranoside as substrate by Lineweaver-Burk plot method; set-up: species or system Prunus dulcis
[6] = Inhibition of Bakers yeast alpha-glucosidase using o-orp-nitrophenyl-glycopyranoside as substrate by Lineweaver-Burk plot method; set-up: species or system Saccharomyces cerevisiae
[7] = target: Alpha-galactosidase (Coffea arabica) (UniProt Q42656); assay: Inhibition of green coffee beans alpha-galactosidase at 0.5 mM using o-orp-nitrophenyl-glycopyranoside as substrate measured for 120 sec relative to control
Escherichia coli = assay: Inhibition of Escherichia coli beta-galactosidase at 0.5 mM using o-orp-nitrophenyl-glycopyranoside as substrate measured for 120 sec relative to control
Helix pomatia = assay: Inhibition of Helix-pomatia beta-mannosidase at 0.5 mM using o-orp-nitrophenyl-glycopyranoside as substrate measured every 30 sec for 3 mins relative to control
Acetylcholinesterase [8] = target: T2, Acetylcholinesterase (Electrophorus electricus, UniProt O42275); assay: Mixed-type inhibition of electric eel acetylcholinesterase assessed as enzyme-substrate-inhibitor complex by Lineweaver-Burk plot method
Acetylcholinesterase [9] = target: T2, Acetylcholinesterase; assay: Mixed-type inhibition of electric eel acetylcholinesterase assessed as enzyme-inhibitor complex by Lineweaver-Burk plot method
[10] = Glutathione peroxidase like activity assessed as hydrogen peroxide reduction by measuring compound Km measured for 180 sec in prescence of varying levels of Phsh by Hanes-Woof plot method
[11] = Glutathione peroxidase like activity assessed as hydrogen peroxide reduction by measuring compound Vmax measured for 180 sec in prescence of varying levels of Phsh by Hanes-Woof plot method
[12] = Glutathione peroxidase like activity assessed as hydrogen peroxide reduction by measuring compound Kcat measured for 180 sec in prescence of varying levels of Phsh by Hanes-Woof plot method
[13] = Glutathione peroxidase like activity assessed as hydrogen peroxide reduction by measuring Kcat to Kuncat ratio measured for 180 sec in prescence of varying levels of Phsh by Hanes-Woof plot method
[14] = Antiproliferative activity against human A549 cells after 48 hrs by sulforhodamine B assay; assay type: functional; conditions: A549, 48 h
[15] = Antiproliferative activity against human HBL100 cells after 48 hrs by sulforhodamine B assay; assay type: functional; conditions: HBL-100, 48 h
[16] = Antiproliferative activity against human HeLa cells after 48 hrs by sulforhodamine B assay; assay type: functional
[17] = Antiproliferative activity against human SW1573 cells after 48 hrs by sulforhodamine B assay; assay type: functional; conditions: SW1573, 48 h
[18] = Antiproliferative activity against human T47D cells after 48 hrs by sulforhodamine B assay; assay type: functional
[19] = Antiproliferative activity against human WiDr cells after 48 hrs by sulforhodamine B assay; assay type: functional
Prunus dulcis = assay: Inhibition of almond beta-glucosidase at 500 uM using o-orp-nitrophenyl-glycopyranoside as substrate measured for 120 sec relative to control
Saccharomyces cerevisiae = assay: Inhibition of Bakers yeast alpha-glucosidase at 500 uM using o-orp-nitrophenyl-glycopyranoside as substrate measured for 120 sec relative to control
[20] = target: T3, Alpha-mannosidase (Canavalia ensiformis) (UniProt C0HJB3); assay: Inhibition of jack bean alpha-mannosidase at 0.5 mM using o-orp-nitrophenyl-glycopyranoside as substrate measured every 30 sec for 3 mins relative to control
T3 sequence (whole entry): T1 sequence (C0HJB3 whole entry)

[21] = target: Acetylcholinesterase (Electrophorus electricus) (UniProt O42275); assay: Inhibition of electric eel acetylcholinesterase at 500 uM assessed as thep-nitrophenolate formation measured for 120 sec relative to control
[22] = Glutathione peroxidase like activity assessed as hydrogen peroxide reduction by measuring reaction rate at 0.1 mM measured for 180 sec in presence of PhSH relative to (PhSe)2
[23] = Selectivity ratio of Ki for Bakers yeast alpha-glucosidase to Ki for almond beta-glucosidase
Alpha-mannosidase [24] = target: T1, Alpha-mannosidase; assay: Mixed-type inhibition of jack bean alpha-mannosidase assessed as enzyme-inhibitor complex using o-orp-nitrophenyl-glycopyranoside as substrate by Lineweaver-Burk plot method
Alpha-mannosidase [25] = target: T1, Alpha-mannosidase; assay: Mixed-type inhibition of jack bean alpha-mannosidase assessed as enzyme-substrate-inhibitor complex using o-orp-nitrophenyl-glycopyranoside as substrate by Lineweaver-Burk plot method

Sequence of Acetylcholinesterase (Electrophorus electricus) (O42275 24-633 limits assumed): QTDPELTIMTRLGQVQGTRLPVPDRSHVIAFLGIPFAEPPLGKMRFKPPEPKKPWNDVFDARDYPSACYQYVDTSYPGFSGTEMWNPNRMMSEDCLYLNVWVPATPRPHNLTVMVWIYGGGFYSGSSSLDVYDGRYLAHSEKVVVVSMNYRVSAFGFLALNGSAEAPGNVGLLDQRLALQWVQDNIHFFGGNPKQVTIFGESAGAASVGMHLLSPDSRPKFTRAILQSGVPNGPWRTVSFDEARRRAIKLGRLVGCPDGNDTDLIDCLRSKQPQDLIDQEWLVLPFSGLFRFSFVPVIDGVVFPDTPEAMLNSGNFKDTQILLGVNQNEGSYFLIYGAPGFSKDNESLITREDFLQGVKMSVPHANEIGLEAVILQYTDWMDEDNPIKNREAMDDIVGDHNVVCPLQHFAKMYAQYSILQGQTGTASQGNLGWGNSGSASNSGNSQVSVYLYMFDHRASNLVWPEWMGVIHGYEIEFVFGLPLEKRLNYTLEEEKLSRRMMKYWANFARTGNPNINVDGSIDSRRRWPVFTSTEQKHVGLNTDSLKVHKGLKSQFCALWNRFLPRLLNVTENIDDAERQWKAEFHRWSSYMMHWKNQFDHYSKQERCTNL
Sequence of Alpha-galactosidase (Coffea arabica) (Q42656 16-378 limits assumed): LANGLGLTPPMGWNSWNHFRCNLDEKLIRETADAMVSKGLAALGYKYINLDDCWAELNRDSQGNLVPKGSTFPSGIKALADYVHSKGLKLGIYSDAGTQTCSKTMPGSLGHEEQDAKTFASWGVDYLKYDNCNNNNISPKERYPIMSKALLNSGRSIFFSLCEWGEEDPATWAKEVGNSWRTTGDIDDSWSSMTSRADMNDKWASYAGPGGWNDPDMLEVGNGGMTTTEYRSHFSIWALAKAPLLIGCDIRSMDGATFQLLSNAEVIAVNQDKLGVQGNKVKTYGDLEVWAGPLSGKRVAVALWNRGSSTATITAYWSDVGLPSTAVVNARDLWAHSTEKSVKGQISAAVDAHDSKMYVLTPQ
T2 sequence (O42275 whole entry): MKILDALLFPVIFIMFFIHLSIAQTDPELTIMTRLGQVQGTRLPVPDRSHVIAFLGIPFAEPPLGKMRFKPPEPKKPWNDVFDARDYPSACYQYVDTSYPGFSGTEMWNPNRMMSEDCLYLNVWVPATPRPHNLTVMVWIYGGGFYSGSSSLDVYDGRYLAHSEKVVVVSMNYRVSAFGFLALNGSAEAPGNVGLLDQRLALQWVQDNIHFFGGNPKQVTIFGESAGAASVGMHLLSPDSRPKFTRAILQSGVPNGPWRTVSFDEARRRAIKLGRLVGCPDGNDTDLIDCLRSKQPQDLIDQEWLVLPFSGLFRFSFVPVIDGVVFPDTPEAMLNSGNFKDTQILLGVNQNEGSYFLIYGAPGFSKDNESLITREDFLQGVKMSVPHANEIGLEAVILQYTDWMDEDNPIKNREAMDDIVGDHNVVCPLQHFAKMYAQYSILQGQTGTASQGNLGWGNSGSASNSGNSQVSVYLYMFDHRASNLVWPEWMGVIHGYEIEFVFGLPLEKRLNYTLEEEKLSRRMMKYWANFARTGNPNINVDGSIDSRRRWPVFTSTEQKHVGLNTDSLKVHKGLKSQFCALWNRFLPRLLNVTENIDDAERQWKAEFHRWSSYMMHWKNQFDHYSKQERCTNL

SMILES	fold change (FC) [3]	inhibition (Aspergillus oryzae)	Ki [5]	Ki [6]	inhibition [7]	inhibition (Escherichia coli)	inhibition (Helix pomatia)	Ki (Acetylcholinesterase [8])	Ki (Acetylcholinesterase [9])	Km [10]	Vmax [11]	kcat [12]	Ratio [13]	GI50 [14]	GI50 [15]	GI50 [16]	GI50 [17]	GI50 [18]	GI50 [19]	inhibition (Prunus dulcis)	other results
OC[C@H]1NC[C@H](O)[C@@H](O)[C@@H]1O [DUVOGLUSTAT]																					Ki [1]: 47 µM; Ki [2]: 25 µM
O=c1c2ccccc2[se]n1-c1ccccc1	0.6																				
COc1ccc(NC(=[Se])NCCCCCN2C[C@H](O)[C@@H](O)[C@H](O)[C@H]2CO)cc1		29%	5.5 µM	36 µM	20%	15%	7%	58.8 µM	83.1 µM	410 µM	211 µM/min	0.035 s⁻¹	640	42 µM	42 µM	82 µM	46 µM	58 µM	> 100 µM	> 50%	Ki (Alpha-mannosidase [4]): 510 µM; inhibition (Saccharomyces cerevisiae): > 50%; inhibition [20]: > 50%; inhibition [21]: > 50%
c1ccc(COC[C@H]2NC[C@H](OCc3ccccc3)[C@@H](OCc3ccccc3)[C@@H]2OCc2ccccc2)cc1	23.6 to 46.1																				fold change (FC) [22]: 18
OC[C@@H]1[C@@H](O)[C@H](O)[C@@H](O)CN1CCCCCNC(=[Se])Nc1ccc(Br)cc1		42%	1.6 µM	30.7 µM	7%	12%	18%	11.2 µM	5.8 µM	330 µM	96.4 µM/min	0.016 s⁻¹	292	7 µM	7.6 µM	27 µM	24 µM	12 µM	21 µM	> 50%	Ratio Ki [23]: < 36; Ki (Alpha-mannosidase [24]): 390 µM; Ki (Alpha-mannosidase [25]): 290 µM; inhibition (Saccharomyces cerevisiae): > 50%; inhibition [20]: > 50%; inhibition [21]: > 50%
c1ccc([Se][Se]c2ccccc2)cc1	2.5									1110 µM	27.3 µM/min	0.0045 s⁻¹	82								
Cc1ccc(NC(=[Se])NCCCCCN2C[C@H](O)[C@@H](O)[C@H](O)[C@H]2CO)cc1		20%	3.7 µM	35 µM	2%	31%	16%	16.9 µM	105 µM					45 µM	76 µM	75 µM	79 µM	68 µM	97 µM	> 50%	inhibition (Saccharomyces cerevisiae): > 50%; inhibition [20]: 46%; inhibition [21]: > 50%

Reference: ChEMBL document CHEMBL3870306, “Selenoureido-iminosugars: A new family of multitarget drugs” (Eur J Med Chem, 2016)
